Assay results: PubChem BioAssay (NCI)
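Cells were grown in 96-well plates and exposed to each compound for 48 hours at five concentrations; endpoints were interpolated linearly between bracketing concentrations, or set to the highest concentration if not reached. The concentration for full growth arrest is given as TGI.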

Legend:
Experiment in all cases: DTP human tumour cell line panel, 48 h
786-0 renal = system: 786-0 renal
A498 renal = system: A498 renal
A549 NSCLC = system: A549 NSCLC
ACHN renal = system: ACHN renal
CCRF-CEM leukemia = system: CCRF-CEM leukemia
COLO 205 colon = system: COLO 205 colon
DLD-1 colon = system: DLD-1 colon
DMS 114 small cell lung = system: DMS 114 small cell lung
EKVX NSCLC = system: EKVX NSCLC
HCC-2998 colon = system: HCC-2998 colon
HCT-116 colon = system: HCT-116 colon
HCT-15 colon = system: HCT-15 colon
HL-60(TB) leukemia = system: HL-60(TB) leukemia
HOP-18 NSCLC = system: HOP-18 NSCLC
HOP-62 NSCLC = system: HOP-62 NSCLC
HOP-92 NSCLC = system: HOP-92 NSCLC
HT29 colon = system: HT29 colon
IGROV1 ovarian = system: IGROV1 ovarian
K-562 leukemia = system: K-562 leukemia
KM12 colon = system: KM12 colon
KM20L2 colon = system: KM20L2 colon
LOX IMVI melanoma = system: LOX IMVI melanoma
LXFL 529 NSCLC = system: LXFL 529 NSCLC
M14 melanoma = system: M14 melanoma
M19-MEL melanoma = system: M19-MEL melanoma
MALME-3M melanoma = system: MALME-3M melanoma
MOLT-4 leukemia = system: MOLT-4 leukemia
NCI-H226 lung = system: NCI-H226 lung
NCI-H23 lung = system: NCI-H23 lung
NCI-H460 lung = system: NCI-H460 lung
NCI-H522 lung = system: NCI-H522 lung
OVCAR-3 ovarian = system: OVCAR-3 ovarian
OVCAR-4 ovarian = system: OVCAR-4 ovarian
OVCAR-5 ovarian = system: OVCAR-5 ovarian
OVCAR-8 ovarian = system: OVCAR-8 ovarian
RPMI-8226 leukemia = system: RPMI-8226 leukemia
RXF 393 renal = system: RXF 393 renal
RXF-631 renal = system: RXF-631 renal
SF-268 CNS = system: SF-268 CNS
SF-295 CNS = system: SF-295 CNS
SF-539 CNS = system: SF-539 CNS
SK-MEL-2 melanoma = system: SK-MEL-2 melanoma
SK-MEL-28 melanoma = system: SK-MEL-28 melanoma
SK-OV-3 ovarian = system: SK-OV-3 ovarian
SN12C renal = system: SN12C renal
SNB-19 CNS = system: SNB-19 CNS
SNB-75 CNS = system: SNB-75 CNS
SNB-78 CNS = system: SNB-78 CNS
SW-620 colon = system: SW-620 colon
TK-10 renal = system: TK-10 renal
U251 CNS = system: U251 CNS
UACC-257 melanoma = system: UACC-257 melanoma
UACC-62 melanoma = system: UACC-62 melanoma
UO-31 renal = system: UO-31 renal
CAKI-1 renal = system: CAKI-1 renal
DMS 273 small cell lung = system: DMS 273 small cell lung
SR leukemia = system: SR leukemia
SK-MEL-5 melanoma = system: SK-MEL-5 melanoma

## O=C(OC1CC(n2cc(F)c(=O)[nH]c2=O)OC1CSC(=O)c1ccccc1)c1ccccc1 (centres undefined)
786-0 renal
  TGI: > 100 µM
A498 renal
  TGI: > 100 µM
A549 NSCLC
  TGI: 92.4 µM
ACHN renal
  TGI: > 100 µM
CCRF-CEM leukemia
  TGI: > 100 µM
COLO 205 colon
  TGI: 88.7 µM
DLD-1 colon
  TGI: > 100 µM
DMS 114 small cell lung
  TGI: > 100 µM
EKVX NSCLC
  TGI: 90.5 µM
HCC-2998 colon
  TGI: 75.2 µM
HCT-116 colon
  TGI: > 100 µM
HCT-15 colon
  TGI: > 100 µM
HL-60(TB) leukemia
  TGI: 53.3 µM
HOP-18 NSCLC
  TGI: 97.4 µM
HOP-62 NSCLC
  TGI: > 100 µM
HOP-92 NSCLC
  TGI: 56 µM
HT29 colon
  TGI: 34.4 µM
IGROV1 ovarian
  TGI: > 100 µM
K-562 leukemia
  TGI: > 100 µM
KM12 colon
  TGI: 91.2 µM
KM20L2 colon
  TGI: 33.9 µM
LOX IMVI melanoma
  TGI: > 100 µM
LXFL 529 NSCLC
  TGI: > 100 µM
M14 melanoma
  TGI: > 100 µM
M19-MEL melanoma
  TGI: 67 µM
MALME-3M melanoma
  TGI: 84.5 µM
MOLT-4 leukemia
  TGI: 81.1 µM
NCI-H226 lung
  TGI: 75.9 µM
NCI-H23 lung
  TGI: > 100 µM
NCI-H460 lung
  TGI: > 100 µM
NCI-H522 lung
  TGI: 87 µM
OVCAR-3 ovarian
  TGI: 53.3 µM
OVCAR-4 ovarian
  TGI: > 100 µM
OVCAR-5 ovarian
  TGI: > 100 µM
OVCAR-8 ovarian
  TGI: > 100 µM
RPMI-8226 leukemia
  TGI: 57.4 µM
RXF 393 renal
  TGI: 81.1 µM
RXF-631 renal
  TGI: 40.3 µM
SF-268 CNS
  TGI: 68.8 µM
SF-295 CNS
  TGI: > 100 µM
SF-539 CNS
  TGI: > 100 µM
SK-MEL-2 melanoma
  TGI: > 100 µM
SK-MEL-28 melanoma
  TGI: > 100 µM
SK-OV-3 ovarian
  TGI: > 100 µM
SN12C renal
  TGI: > 100 µM
SNB-19 CNS
  TGI: > 100 µM
SNB-75 CNS
  TGI: 65.6 µM
SNB-78 CNS
  TGI: > 100 µM
SW-620 colon
  TGI: > 100 µM
TK-10 renal
  TGI: > 100 µM
U251 CNS
  TGI: 49.8 µM
UACC-257 melanoma
  TGI: 87.6 µM
UACC-62 melanoma
  TGI: > 100 µM
UO-31 renal
  TGI: > 100 µM

## CCOc1nc(OCC)nc(-c2cccn2-c2ccccc2)n1
786-0 renal
  TGI: > 100 µM
A498 renal
  TGI: > 100 µM
A549 NSCLC
  TGI: > 100 µM
ACHN renal
  TGI: > 100 µM
CAKI-1 renal
  TGI: > 100 µM
CCRF-CEM leukemia
  TGI: > 100 µM
DMS 114 small cell lung
  TGI: 86.8 µM
DMS 273 small cell lung
  TGI: > 100 µM
EKVX NSCLC
  TGI: > 100 µM
HCC-2998 colon
  TGI: > 100 µM
HCT-116 colon
  TGI: > 100 µM
HCT-15 colon
  TGI: > 100 µM
HL-60(TB) leukemia
  TGI: 82.5 µM
HOP-62 NSCLC
  TGI: > 100 µM
HT29 colon
  TGI: > 100 µM
IGROV1 ovarian
  TGI: 89.3 µM
K-562 leukemia
  TGI: > 100 µM
KM12 colon
  TGI: > 100 µM
M14 melanoma
  TGI: > 100 µM
M19-MEL melanoma
  TGI: > 100 µM
MALME-3M melanoma
  TGI: 60.6 µM
MOLT-4 leukemia
  TGI: 57.4 µM
NCI-H226 lung
  TGI: > 100 µM
NCI-H23 lung
  TGI: > 100 µM
NCI-H460 lung
  TGI: > 100 µM
NCI-H522 lung
  TGI: > 100 µM
OVCAR-3 ovarian
  TGI: 69.3 µM
OVCAR-4 ovarian
  TGI: > 100 µM
OVCAR-5 ovarian
  TGI: > 100 µM
OVCAR-8 ovarian
  TGI: > 100 µM
RXF 393 renal
  TGI: > 100 µM
RXF-631 renal
  TGI: > 100 µM
SF-268 CNS
  TGI: > 100 µM
SF-295 CNS
  TGI: > 100 µM
SF-539 CNS
  TGI: > 100 µM
SK-MEL-2 melanoma
  TGI: 97.1 µM
SK-MEL-28 melanoma
  TGI: > 100 µM
SK-OV-3 ovarian
  TGI: 75 µM
SN12C renal
  TGI: > 100 µM
SNB-19 CNS
  TGI: > 100 µM
SNB-78 CNS
  TGI: > 100 µM
SR leukemia
  TGI: 99.7 µM
SW-620 colon
  TGI: > 100 µM
TK-10 renal
  TGI: 89.2 µM
U251 CNS
  TGI: 48.6 µM
UACC-257 melanoma
  TGI: > 100 µM
UACC-62 melanoma
  TGI: > 100 µM
UO-31 renal
  TGI: 67.9 µM

## COC(=O)C(C(=O)C(=O)Nc1nc2ccc([N+](=O)[O-])cc2s1)c1nc2ccc(Cl)cc2[nH]c1=O (centres undefined)
786-0 renal
  TGI: > 100 µM
A498 renal
  TGI: > 100 µM
A549 NSCLC
  TGI: > 100 µM
ACHN renal
  TGI: > 100 µM
CAKI-1 renal
  TGI: > 100 µM
CCRF-CEM leukemia
  TGI: > 100 µM
COLO 205 colon
  TGI: > 100 µM
DLD-1 colon
  TGI: > 100 µM
DMS 114 small cell lung
  TGI: > 100 µM
DMS 273 small cell lung
  TGI: > 100 µM
EKVX NSCLC
  TGI: > 100 µM
HCC-2998 colon
  TGI: > 100 µM
HCT-116 colon
  TGI: > 100 µM
HCT-15 colon
  TGI: > 100 µM
HL-60(TB) leukemia
  TGI: > 100 µM
HOP-18 NSCLC
  TGI: > 100 µM
HOP-62 NSCLC
  TGI: > 100 µM
HT29 colon
  TGI: > 100 µM
IGROV1 ovarian
  TGI: > 100 µM
K-562 leukemia
  TGI: > 100 µM
KM12 colon
  TGI: > 100 µM
KM20L2 colon
  TGI: > 100 µM
LOX IMVI melanoma
  TGI: > 100 µM
LXFL 529 NSCLC
  TGI: > 100 µM
M14 melanoma
  TGI: > 100 µM
M19-MEL melanoma
  TGI: > 100 µM
MALME-3M melanoma
  TGI: > 100 µM
MOLT-4 leukemia
  TGI: > 100 µM
NCI-H226 lung
  TGI: > 100 µM
NCI-H23 lung
  TGI: > 100 µM
NCI-H460 lung
  TGI: > 100 µM
NCI-H522 lung
  TGI: > 100 µM
OVCAR-3 ovarian
  TGI: > 100 µM
OVCAR-4 ovarian
  TGI: > 100 µM
OVCAR-5 ovarian
  TGI: > 100 µM
OVCAR-8 ovarian
  TGI: > 100 µM
RPMI-8226 leukemia
  TGI: > 100 µM
RXF 393 renal
  TGI: > 100 µM
RXF-631 renal
  TGI: > 100 µM
SF-268 CNS
  TGI: > 100 µM
SF-295 CNS
  TGI: > 100 µM
SF-539 CNS
  TGI: > 100 µM
SK-MEL-2 melanoma
  TGI: > 100 µM
SK-MEL-28 melanoma
  TGI: > 100 µM
SK-MEL-5 melanoma
  TGI: > 100 µM
SK-OV-3 ovarian
  TGI: > 100 µM
SN12C renal
  TGI: > 100 µM
SNB-19 CNS
  TGI: > 100 µM
SNB-75 CNS
  TGI: > 100 µM
SNB-78 CNS
  TGI: > 100 µM
SR leukemia
  TGI: > 100 µM
SW-620 colon
  TGI: > 100 µM
TK-10 renal
  TGI: > 100 µM
U251 CNS
  TGI: > 100 µM
UACC-257 melanoma
  TGI: > 100 µM
UACC-62 melanoma
  TGI: > 100 µM
UO-31 renal
  TGI: > 100 µM
